# Experimental data: patent US20090030033A1, “Novel Compounds 894” (AstraZeneca AB, priority 2007, published 2009)
# Structures can show the parent of a compound that is named as a salt.
# Target: T1, human GlyT1b (Homo sapiens, UniProt P48067)
# T1 construct: expressed in transfected cells
# T1 sequence (P48067 1-652 isoform P48067-3): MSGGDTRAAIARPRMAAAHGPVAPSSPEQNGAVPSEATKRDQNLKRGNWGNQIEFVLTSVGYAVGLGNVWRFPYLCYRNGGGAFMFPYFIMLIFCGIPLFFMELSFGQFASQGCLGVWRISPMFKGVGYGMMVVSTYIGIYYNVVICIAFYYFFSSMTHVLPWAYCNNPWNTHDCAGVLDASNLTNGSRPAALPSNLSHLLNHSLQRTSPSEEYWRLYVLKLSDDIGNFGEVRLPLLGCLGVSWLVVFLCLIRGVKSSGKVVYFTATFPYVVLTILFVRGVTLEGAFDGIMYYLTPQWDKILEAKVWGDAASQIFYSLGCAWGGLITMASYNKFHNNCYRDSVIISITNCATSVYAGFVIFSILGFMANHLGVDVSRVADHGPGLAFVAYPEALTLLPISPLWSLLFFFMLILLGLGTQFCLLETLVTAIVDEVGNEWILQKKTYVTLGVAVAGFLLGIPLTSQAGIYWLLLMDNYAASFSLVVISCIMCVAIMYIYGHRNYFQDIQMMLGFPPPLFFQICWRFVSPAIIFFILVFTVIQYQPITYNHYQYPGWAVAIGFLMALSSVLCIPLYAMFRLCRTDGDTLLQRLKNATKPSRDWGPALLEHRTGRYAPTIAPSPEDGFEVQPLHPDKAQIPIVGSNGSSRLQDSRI
# Assay: [3H]Glycine Uptake Assay (SPA) in hGlyT1b/CHO cells
# Assay type: cell-based
# Details: compounds of Formula Ia, read at 2 h
# Experimental: The activity and usefulness of the compounds can be assessed in assays known to those skilled in the art. […] The potency was measured in the [3H]Glycine Uptake Assay substantially as described below.
# [^3H]Glycine Uptake Assay
# [^3H]Glycine: PerkinElmer (NET-004, [2-^3H]Glycine, 53.3 Ci/mmol, 1 mCi/mL)
# Preparation of recombinant human GlyT1-CHO cells (hGlyT1-CHO). […] CHO-K1 cells (ATCC) were transfected with the recombinant vector containing GlyT1b using Lipofectamine 2000 (Invitrogen) and cultured in Ham's/F12 media supplemented with 10% fetal bovine serum, 2 mM L-glutamine at 37° C., 5% CO2, 90% humidity. Twenty-four hours after transfection, cells were diluted and switched to media containing 500 μg/ml hygromycin B. Antibiotic resistant cells were obtained after 21 days of culture in the presence of hygromycin B. Clonal stable cell lines were isolated by FACS single cell deposition into 96-well plates.
# Cell culture: Recombinant hGlyT1-CHO cells were cultured in cell culture medium (Ham's/F12, containing 10% FBS, 2 mM L-glutamine and 500 μg/ml hygromycin B in 175 cm^2 flasks until near confluence prior to use in assay.
# Cell suspension: Cell medium in a cell culture flask containing near confluent cells was removed and 5 ml of cell stripper was added to submerge all cells on the surface of the culture flask. Cell stripper was removed immediately and the flask incubated in a 37° C. incubator for ˜5 min. Cells were shaken loose and suspended in 5 ml of PBS. After splitting cells to initiate a new flask(s), the cells remaining were collected by centrifugation, counted, and resuspended in assay buffer to a density of ˜2 million/mL. The cell suspension was kept at room temperature before use.
# SPA and isotope mixture: WGA PTV beads were suspended in assay buffer (2 mg/ml) containing 60 nM [^3H]Glycine and 20 μM unlabeled glycine and the suspension was kept at room temperature before assay.
# Assay of glycine uptake: To the wells of an OptiPlate, 2 μl DMSO containing a test compound was spotted. This was followed by addition of 98 μl of cell suspension (˜1 million/ml final). After incubating cells with compound for ˜15 min, 100 μl of the SPA (200 μg/well final) and isotope mixture (30 nM isotope with 10 μM cold glycine, final) was added to initiate the glycine uptake. At 2 h, the plate was read on a TopCount to quantify SPA counts.
row,IC50,SMILES
1,67.6 nM,"Cc1c(C(=O)NC(c2ccccc2)C23CCC(CC2)CN3)cccc1C(F)(F)F (single isomer, unassigned) [N-(2-azabicyclo[2.2.2]octan-1-yl(phenyl)methyl)-2-methyl-3-(trifluoromethyl)benzamide]"
2,198 nM,"O=C(NC(c1ccccc1)C12CCC(CC1)CN2)c1cccc(C(F)(F)F)c1Cl (single isomer, unassigned) [drawing 103, N-(2-azabicyclo[2.2.2]octan-1-yl(phenyl)methyl)-2-chloro-3-(trifluoromethyl)benzamide]"
3,99.7 nM,"O=C(NC(c1ccccc1)C12CCC(CC1)CN2)c1cccc(Cl)c1Cl (single isomer, unassigned) [N-(2-azabicyclo[2.2.2]octan-1-yl(phenyl)methyl)-2,3-dichlorobenzamide]"
4,258 nM,O=C(NC(c1ccccc1)C12CCC(CC1)CN2)c1cccc(C(F)(F)F)c1Cl (stereo not shown) [N-(2-azabicyclo[2.2.2]octan-1-yl(phenyl)methyl)-2-chloro-3-(trifluoromethyl)benzamide]
5,455 nM,"O=C(NC(c1ccccc1)C12CCC(CC1)CN2)c1cccc(C(F)(F)F)c1Cl (single isomer, unassigned) [drawing 102, N-(2-azabicyclo[2.2.2]octan-1-yl(phenyl)methyl)-2-chloro-3-(trifluoromethyl)benzamide]"

# Same assay, conditions: compounds of Formula Ib, read at 2 h
row,IC50,SMILES
1,25.8 nM,CN1CC2CCC1(C(NC(=O)c1cccc(F)c1Br)c1ccccc1)CC2 (stereo not shown) [2-bromo-3-fluoro-N-((2-methyl-2-azabicyclo[2.2.2]octan-1-yl)(phenyl)methyl)benzamide]
2,5.9 nM,"CN1CC2CCC1([C@H](NC(=O)c1cccc(F)c1Cl)c1ccccc1)CC2 [(R)-2-chloro-3-fluoro-N-((2-methyl-2-azabicyclo[2.2.2]octan-1-yl)(phenyl)methyl)benzamide,citric acid salt]"
3,86.2 nM,"CN1CC2CCC1(C(NC(=O)c1cc(C(F)(F)F)ccc1C(F)(F)F)c1ccccc1)CC2 (stereo not shown) [N-((2-methyl-2-azabicyclo[2.2.2]octan-1-yl)(phenyl)methyl)-2,5-bis(trifluoromethyl)benzamide]"
4,336 nM,"CCOc1ccccc1C(=O)N[C@H](c1ccccc1)C12CCC(CC1)CN2C [(R)-2-ethoxy-N-((2-methyl-2-azabicyclo[2.2.2]octan-1-yl)(phenyl)methyl)benzamide,citric acid salt]"
5,6.45 nM,"CN1CC2CCC1(C(NC(=O)c1ccc(Cl)cc1Cl)c1ccccc1)CC2 (stereo not shown) [2,4-dichloro-N-((2-methyl-2-azabicyclo[2.2.2]octan-1-yl)(phenyl)methyl)benzamide]"
6,3.15 nM,COc1cccc(Cl)c1C(=O)NC(c1ccccc1)C12CCC(CC1)CN2C (stereo not shown) [2-chloro-6-methoxy-N-((2-methyl-2-azabicyclo[2.2.2]octan-1-yl)(phenyl)methyl)benzamide]
7,11.1 nM,"CN1CC2CCC1([C@H](NC(=O)c1ccc(Cl)cc1Cl)c1ccccc1)CC2 [(R)-2,4-dichloro-N-((2-methyl-2-azabicyclo[2.2.2]octan-1-yl)(phenyl)methyl)benzamide,citric acid salt]"
8,12 nM,CN1CC2CCC1(C(NC(=O)c1cccc(F)c1Cl)c1ccccc1)CC2 (stereo not shown) [2-chloro-3-fluoro-N-((2-methyl-2-azabicyclo[2.2.2]octan-1-yl)(phenyl)methyl)benzamide]
9,7.71 nM,"CN1CC2CCC1(C(NC(=O)c1ccc(F)cc1Cl)c1ccccc1)CC2 [drawing 58, (R)-2-chloro-4-fluoro-N-((2-methyl-2-azabicyclo[2.2.2]octan-1-yl)(phenyl)methyl)benzamide,citric acid salt]"
10,13.6 nM,CN1CC2CCC1(C(NC(=O)c1ccccc1OC(F)(F)F)c1ccccc1)CC2 (stereo not shown) [N-((2-methyl-2-azabicyclo[2.2.2]octan-1-yl)(phenyl)methyl)-2-(trifluoromethoxy)benzamide]
11,32.7 nM,COc1ccc(Cl)c(C(=O)NC(c2ccccc2)C23CCC(CC2)CN3C)c1 (stereo not shown) [2-chloro-5-methoxy-N-((2-methyl-2-azabicyclo[2.2.2]octan-1-yl)(phenyl)methyl)benzamide]
12,2.95 nM,CSc1ccccc1C(=O)NC(c1ccccc1)C12CCC(CC1)CN2C (stereo not shown) [N-((2-methyl-2-azabicyclo[2.2.2]octan-1-yl)(phenyl)methyl)-2-(methylthio)benzamide]
13,< 2.34 nM,Cc1c(C(=O)NC(c2ccccc2)C23CCC(CC2)CN3C)cccc1C(F)(F)F (stereo not shown) [2-methyl-N-((2-methyl-2-azabicyclo[2.2.2]octan-1-yl)(phenyl)methyl)-3-(trifluoromethyl)benzamide]
14,92 nM,CN1CC2CCC1(C(NC(=O)c1cccc(C(F)(F)F)c1F)c1ccccc1)CC2 (stereo not shown) [2-fluoro-N-((2-methyl-2-azabicyclo[2.2.2]octan-1-yl)(phenyl)methyl)-3-(trifluoromethyl)benzamide]
15,0.965 nM,"CCc1ccccc1C(=O)N[C@H](c1ccccc1)C12CCC(CC1)CN2C [(R)-2-ethyl-N-((2-methyl-2-azabicyclo[2.2.2]octan-1-yl)(phenyl)methyl)benzamide,citric acid salt]"
16,2.3 nM,Cc1cccc(Cl)c1C(=O)NC(c1ccccc1)C12CCC(CC1)CN2C (stereo not shown) [2-chloro-6-methyl-N-((2-methyl-2-azabicyclo[2.2.2]octan-1-yl)(phenyl)methyl)benzamide]
17,8.45 nM,"CN1CC2CCC1(C(NC(=O)c1ccc(F)cc1Cl)c1ccccc1)CC2 (stereo not shown) [drawing 37, 2-chloro-4-fluoro-N-((2-methyl-2-azabicyclo[2.2.2]octan-1-yl)(phenyl)methyl)benzamide]"
18,65 nM,CN1CC2CCC1(C(NC(=O)c1c(F)cccc1C(F)(F)F)c1ccccc1)CC2 (stereo not shown) [2-fluoro-N-((2-methyl-2-azabicyclo[2.2.2]octan-1-yl)(phenyl)methyl)-6-(trifluoromethyl)benzamide]
19,2.6 nM,Cc1c(F)cccc1C(=O)NC(c1ccccc1)C12CCC(CC1)CN2C (stereo not shown) [3-fluoro-2-methyl-N-((2-methyl-2-azabicyclo[2.2.2]octan-1-yl)(phenyl)methyl)benzamide]
20,4.74 nM,"COc1cccc(Cl)c1C(=O)N[C@H](c1ccccc1)C12CCC(CC1)CN2C [(R)-2-chloro-6-methoxy-N-((2-methyl-2-azabicyclo[2.2.2]octan-1-yl)(phenyl)methyl)benzamide,citric acid salt]"
21,65.1 nM,CN1CC2CCC1(C(NC(=O)c1ccccc1Cl)c1ccccc1)CC2 (stereo not shown) [2-chloro-N-((2-methyl-2-azabicyclo[2.2.2]octan-1-yl)(phenyl)methyl)benzamide]
22,1.34 nM,Cc1cccc(Br)c1C(=O)NC(c1ccccc1)C12CCC(CC1)CN2C (stereo not shown) [2-bromo-6-methyl-N-((2-methyl-2-azabicyclo[2.2.2]octan-1-yl)(phenyl)methyl)benzamide]
23,10.5 nM,CN1CC2CCC1(C(NC(=O)c1ccccc1Br)c1ccccc1)CC2 (stereo not shown) [2-bromo-N-((2-methyl-2-azabicyclo[2.2.2]octan-1-yl)(phenyl)methyl)benzamide]
24,12.1 nM,CN1CC2CCC1(C(NC(=O)c1c(Cl)cccc1Br)c1ccccc1)CC2 (stereo not shown) [2-bromo-6-chloro-N-((2-methyl-2-azabicyclo[2.2.2]octan-1-yl)(phenyl)methyl)benzamide]
25,49.6 nM,"CN1CC2CCC1([C@H](NC(=O)c1ccccc1C(F)(F)F)c1ccccc1)CC2 [(R)-N-((2-methyl-2-azabicyclo[2.2.2]octan-1-yl)(phenyl)methyl)-2-(trifluoromethyl)benzamide,citric acid salt]"
26,3.48 nM,Cc1ccccc1C(=O)NC(c1ccccc1)C12CCC(CC1)CN2C (stereo not shown) [2-methyl-N-((2-methyl-2-azabicyclo[2.2.2]octan-1-yl)(phenyl)methyl)benzamide]
